Measured values: US11944622B2 (Annapurna Bio, Inc., priority 2018, dated 2024)

Each compound was assayed against T1, APJ Receptor (Homo sapiens, UniProt P35414) (assay: APJ cAMP assay (DiscoverX enzyme fragment complementation; inhibition of forskolin-stimulated cAMP)). Settings: CHO-K1 cell line stably expressing the APJ Receptor; EC80 forskolin; 30 minutes at 37° C.; read-out: Potency Range (APJ cAMP EC50).
T1 sequence (P35414 1-380): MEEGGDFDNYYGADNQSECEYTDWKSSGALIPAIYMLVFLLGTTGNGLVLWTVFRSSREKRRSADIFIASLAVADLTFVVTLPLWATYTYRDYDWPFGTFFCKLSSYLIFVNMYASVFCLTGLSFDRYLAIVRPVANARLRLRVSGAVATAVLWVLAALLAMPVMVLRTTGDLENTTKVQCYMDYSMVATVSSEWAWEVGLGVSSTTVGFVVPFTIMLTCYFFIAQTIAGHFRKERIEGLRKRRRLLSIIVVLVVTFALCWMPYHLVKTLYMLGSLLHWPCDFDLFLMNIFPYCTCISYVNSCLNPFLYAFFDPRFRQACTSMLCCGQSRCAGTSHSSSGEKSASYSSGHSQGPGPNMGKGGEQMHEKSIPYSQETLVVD
Type: cell-based
Outline: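 CHO-K1 cells stably expressing APJ incubated with compound plus EC80 forskolin for 30 min at 37° C. cAMP detected by β-galactosidase enzyme fragment complementation with chemiluminescent read-out; % activity calculated relative to vehicle and maximal controls.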
`CCOc1cccc(-c2nc3nnc(NS(=O)(=O)Cc4ccc(F)cc4)cc3n2-c2c(OC)cccc2OC)n1` [Example 122, N-(7-(2,6-Dimethoxyphenyl)-8-(6-ethoxypyridin-2-yl)-7H-imidazo[4,5-c]pyridazinyl)-1-(4-fluorophenyl)methanesulfonamide] was tested, and the EC50 was < 1 nM.
Work on `CCOc1cccc(-c2nc3ncc(NS(=O)(=O)C[C@H]4C[C@](C)(O)C4)nc3n2-c2c(OC)cccc2OC)n1` [Example 81, trans-N-(1-(2,6-Dimethoxyphenyl)-2-(6-ethoxypyridin-2-yl)-1H-imidazo[4,5-b]pyrazin-6-yl)-1-((1r,3r)-3-hydroxy-3-methylcyclobutyl)methanesulfonamide] yielded an EC50 of 1 to 100 nM.
For `CCOc1cccc(-c2nc3nc(Cl)c(NS(=O)(=O)C4CC4)nc3n2-c2c(OC)cncc2OC)n1` [Example 118, N-(5-Chloro-1-(3,5-dimethoxypyridin-4-yl)-2-(6-ethoxypyridin-2-yl)-1H-imidazo[4,5-b]pyrazin-6)cyclopropanesulfonamide], the EC50 was 1 to 100 nM.
With `CCOc1cccc(-c2nc3ncc(NS(=O)(=O)c4ccccc4)nc3n2-c2c(OC)cccc2OC)n1` [Example 5, N-(1-(2,6-dimethoxyphenyl)-2-(6-ethoxypyridin-2-yl)-1H-imidazo[4,5-b]pyrazin-6-yl)benzenesulfonamide] the EC50 was < 1 nM.
`CCOc1cccc(-c2nc3nnc(NS(=O)(=O)Cc4ccc(Cl)cn4)cc3n2-c2c(OC)cccc2OC)n1` [Example 123, 1-(5-Chloropyridin-2-yl)-N-(7-(2,6-dimethoxyphenyl)-8-(6-ethoxypyridin-2-yl)-7H-imidazo[4,5-c]pyridazinyl)methanesulfonamide] was tested, and the EC50 was < 1 nM.
In the case of `CCOc1cccc(-c2nc3ncc(NS(=O)(=O)Cc4ncccn4)nc3n2-c2c(OC)cccc2OC)n1` [Example 28, N-(1-(2,6-dimethoxyphenyl)-2-(6-ethoxypyridin-2-yl)-1H-imidazo[4,5-b]pyrazin-6-yl)-1-(pyrimidin-2-yl)methanesulfonamide], the EC50 is reported as < 1 nM.
`CCOc1cccc(-c2nc3nc(CC)c(NS(C)(=O)=O)nc3n2-c2c(OC)cccc2OC)n1` [Example 86, N-(1-(2,6-dimethoxyphenyl)-2-(6-ethoxypyridin-2-yl)-5-ethyl-1H-imidazo[4,5-b]pyrazin-6-yl)methanesulfonamide] was tested, and the EC50 was 1 to 100 nM.
`CCOc1cccc(-c2nc3ncc(NS(=O)(=O)CCC(C)(C)O)nc3n2-c2c(OC)cccc2OC)n1` [Example 60, N-(1-(2,6-dimethoxyphenyl)-2-(6-ethoxypyridin-2-yl)-1H-imidazo[4,5-b]pyrazin-6-yl)-3-hydroxy-3-methylbutane-1-sulfonamide] was tested, and the EC50 was 1 to 100 nM.
`CCOc1cccc(-c2nc3ncc(NS(=O)(=O)Cc4ncc(C)cn4)nc3n2-c2c(OC)cccc2OC)n1` [Example 80, N-(1-(2,6-dimethoxyphenyl)-2-(6-ethoxypyridin-2-yl)-1H-imidazo[4,5-b]pyrazin-6-yl)-1-(5-methylpyrimidin-2-yl)methanesulfonamide] was tested, and the EC50 was < 1 nM.
With `CCOc1cccc(-c2nc3ncc(NS(=O)(=O)CC(C)(C)O)nc3n2-c2c(OC)cccc2OC)n1` [Example 70] the EC50 was 1 to 100 nM.
With `CCOc1cccc(-c2nc3nc(Cl)c(NS(=O)(=O)CC4(O)CC4)nc3n2-c2c(OC)cccc2OC)n1` [Example 113, N-(5-Chloro-1-(2,6-dimethoxyphenyl)-2-(6-ethoxypyridin-2-yl)-1H-imidazo[4,5-b]pyrazin-6-yl)-1-(1-hydroxycyclopropyl)methanesulfonamide] the EC50 was 1 to 100 nM.
Work on `CCOc1cccc(-c2nc3ncc(NC(=O)Cc4ccccc4)nc3n2-c2c(OC)cccc2OC)n1` [Example 14, N-(1-(2,6-dimethoxyphenyl)-2-(6-ethoxypyridin-2-yl)-1H-imidazo[4,5-b]pyrazin-6-yl)-2-phenylacetamide] yielded an EC50 of 1 to 100 nM.
`CCOc1cccc(-c2nc3ncc(NS(=O)(=O)CC4(O)CC4)nc3n2-c2c(OC)cccc2OC)n1` [Example 61, N-(1-(2,6-dimethoxyphenyl)-2-(6-ethoxypyridin-2-yl)-1H-imidazo[4,5-b]pyrazin-6-yl)-1-(1-hydroxycyclopropyl)methanesulfonamide] gave an EC50 of 1 to 100 nM.
`CCOc1cccc(-c2nc3ncc(NCC4CC4)nc3n2-c2c(OC)cccc2OC)n1` [Example 67, N-(cyclopropylmethyl)-1-(2,6-dimethoxyphenyl)-2-(6-ethoxypyridin-2-yl)-1H-imidazo[4,5-b]pyrazin-6-amine] was tested, and the EC50 was 1 to 100 nM.
For `CCOc1cccc(-c2nc3ncc(NS(=O)(=O)C[C@@H]4CCN(C)C(=O)C4)nc3n2-c2c(OC)cccc2OC)n1` [Example 72, (R)—N-(1-(2,6-dimethoxyphenyl)-2-(6-ethoxypyridin-2-yl)-1H-imidazo[4,5-b]pyrazin-6-yl)-1-(1-methyl-2-oxopiperidin-4-yl)methanesulfonamide], the EC50 was < 1 nM.
Compound `CCOc1cccc(-c2nc3nc(Cl)c(NS(=O)(=O)Cc4ccc(C)cn4)nc3n2-c2c(OC)cccc2OC)n1` [Example 114, N-(5-Chloro-1-(2,6-dimethoxyphenyl)-2-(6-ethoxypyridin-2-yl)-1H-imidazo[4,5-b]pyrazin-6-yl)-1-(5-methylpyridin-2-yl)methanesulfonamide] has an EC50 of 1 to 100 nM.
Compound `CCCOc1nc2ncc(NS(=O)(=O)c3ccccc3)nc2n1-c1c(OC)cccc1OC` [Example 134, N-(1-(2,6-Dimethoxyphenyl)-2-propoxy-1H-imidazo[4,5-b]pyrazin-6-yl) benzenesulfonamide] has an EC50 of 100 to 10000 nM.
With `CCOc1cccc(-c2nc3nc(NS(=O)(=O)Cc4ncc(C)cn4)cnc3n2-c2c(OC)cccc2OC)n1` [Example 91, N-(1-(2,6-Dimethoxyphenyl)-2-(6-ethoxypyridin-2-yl)-1H-imidazo[4,5-b]pyrazin-5-yl)-1-(5-methylpyrimidin-2-yl)methanesulfonamide] the EC50 was < 1 nM.
In the case of `COc1cccc(OC)c1-n1c(-c2cccc(OCC(F)(F)F)n2)nc2ncc(NS(C)(=O)=O)nc21` [Example 55, N-(1-(2,6-dimethoxyphenyl)-2-(6-(trifluoroethoxy)pyridin-2-yl)-1H-imidazo[4,5-b]pyrazin-6-yl)methanesulfonamide], the EC50 is reported as 1 to 100 nM.
For `CCOc1cccc(-c2nc3ncc(NS(=O)(=O)N4CCCCC4)nc3n2-c2c(OC)cccc2OC)n1` [Example 75, N-(1-(2,6-dimethoxyphenyl)-2-(6-ethoxypyridin-2-yl)-1H-imidazo[4,5-b]pyrazin-6-yl)piperidine-1-sulfonamide], the EC50 was < 1 nM.
In the case of `CCOc1cccc(-c2nc3nc(Cl)c(NS(=O)(=O)C[C@H]4C[C@](C)(O)C4)nc3n2-c2c(OC)cccc2OC)n1` [Example 115, N-(5-Chloro-1-(2,6-dimethoxyphenyl)-2-(6-ethoxypyridin-2-yl)-1H-imidazo[4,5-b]pyrazin-6-yl)-1-((1r,3r)-3-hydroxymethylcyclobutyl) methanesulfonamide], the EC50 is reported as < 1 nM.
`CCOc1cccc(-c2nc3nccnc3n2-c2c(OC)cccc2OC)n1` [Example 18, 1-(2,6-dimethoxyphenyl)-2-(6-ethoxypyridin-2-yl)-1H-imidazo[4,5-b]pyrazine] gave an EC50 of 100 to 10000 nM.
`CCOc1cccc(-c2nc3nnc(NS(C)(=O)=O)c(C)c3n2-c2c(OC)cccc2OC)n1` [Example 139, N-(7-(2,6-Dimethoxyphenyl)-8-(6-ethoxypyridin-2-yl)-6-methyl-7H-imidazo[4,5-c]pyridazinyl)methanesulfonamide] showed an EC50 of 1 to 100 nM.
`CCOc1cccc(-c2nc3nc(N)c(NS(C)(=O)=O)nc3n2-c2c(OC)cccc2OC)n1` [Example 145, N-(5-Amino-1-(2,6-dimethoxyphenyl)-2-(6-ethoxypyridin-2-yl)-1H-imidazo[4,5-b]pyrazin-6-yl)methanesulfonamide] was tested, and the EC50 was 1 to 100 nM.
With `CCOc1cccc(-c2nc3nnc(NS(=O)(=O)Cc4ncc(O)cn4)cc3n2-c2c(OC)cccc2OC)n1` [Example 129, N-(7-(2,6-Dimethoxyphenyl)-8-(6-ethoxypyridin-2-yl)-7H-imidazo[4,5-c]pyridazinyl)-1-(5-hydroxypyrimidin-2-yl)methanesulfonamide] the EC50 was 1 to 100 nM.
With `CCOc1cccc(-c2nc3nc(CCC4CC4)c(NS(C)(=O)=O)nc3n2-c2c(OC)cccc2OC)n1` [Example 66, N-(5-(2-cyclopropylethyl)-1-(2,6-dimethoxyphenyl)-2-(6-ethoxypyridin-2-yl)-1H-imidazo[4,5-b]pyrazin-6-yl)methanesulfonamide] the EC50 was < 1 nM.
`CCOc1cccc(-c2nc3ncc(CCc4ccccc4)nc3n2-c2c(OC)cccc2OC)n1` [Example 7, 1-(2,6-dimethoxyphenyl)-2-(6-ethoxypyridin-2-yl)-6-phenethyl-1H-imidazo[4,5-b]pyrazine] gave an EC50 of 1 to 100 nM.
`CCOc1cccc(-c2nc3nc(NS(=O)(=O)CCC4CC4)cnc3n2-c2c(OC)cccc2OC)n1` [Example 44] was tested, and the EC50 was < 1 nM.
In the case of `CCOc1cccc(-c2nc3ncc(NS(=O)(=O)CCC4CC4)nc3n2-c2c(OC)cccc2OC)n1` [Example 29, 2-cyclopropyl-N-(1-(2,6-dimethoxyphenyl)-2-(6-ethoxypyridin-2-yl)-1H-imidazo[4,5-b]pyrazin-6-yl)ethanesulfonamide], the EC50 is reported as < 1 nM.
Work on `CCOc1cccc(-c2nc3ncc(NS(C)(=O)=O)nc3n2-c2c(OC)cccc2OC)n1` [Example 2, N-(1-(2,6-dimethoxyphenyl)-2-(6-ethoxypyridin-2-yl)-1H-imidazo[4,5-b]pyrazin-6-yl)methanesulfonamide] yielded an EC50 of 1 to 100 nM.
In the case of `C=Cc1nc2nc(-c3cccc(OCC)n3)n(-c3c(OC)cccc3OC)c2nc1NS(C)(=O)=O` [Example 137, N-(1-(2,6-Dimethoxyphenyl)-2-(6-ethoxypyridin-2-yl)-5-vinyl-1H-imidazo[4,5-b]pyrazin-6-yl)methanesulfonamide], the EC50 is reported as 1 to 100 nM.
